In patent publication US20240159744A1, “COLON CANCER DIAGNOSIS OR DETECTION COMPOSITION FOR PREDICTING RESPONSE TO DRUG, AND COMPOSITION FOR PREVENTING OR TREATING COLON CANCER” (priority 2020, published 2024):

Columns and labels:
[1] = system: HCT-15, HT29, Lovo and HCT-8 cells; test: In-vitro toxicity test (CCK-8), statements over all four cell lines; format: cell-based, human; conditions: 48 hours
Description: First, HCT-15 cells were plated on a 96-well plate at a density of 5×10^3 cell/well. […] 48 hours later, the medium was removed and the cells were treated with a cell counting kit (CCK-8, Dojindo, Japan) at 37° C. for 1 hour. Absorbance was measured at 450 nm using a VERSAmax™ microplate reader (Molecular Devices Corp., CA, USA). The cell viability of each group (n=5) was represented as a percentage of normal untreated cells (control group). […] After removing the medium, cell viability was evaluated by CCK-8 assay.

HCT-8-bearing mice = test: Antitumor effect of EGF-prodrug in vivo; conditions: 1 mg/kg of DOX, 6 times every 3 days, 21 days
Description: 2×10^6 HCT-15 cells or HCT-8 cells were subcutaneously inoculated to Balb/c-nude mice. […] The injection was carried out into the tail vein every 3 days for a total of 6 times. Antitumor effect was evaluated by sacrificing the mice to which the HCT-15 or HCT-8 cells were administered and measuring the volume of tumor tissue. The volume of the tumor tissue was calculated every day or every other day by 0.53×length×width^2. Tumor growth was monitored for 21 days. After sacrificing the mice, the HCT-15 or HCT-8 tumor tissues were collected. The dissected tumors were imaged and fixed by treating with 4% paraformaldehyde. […] The sections were used for histological or pathological investigation. They were stained with H&E for visualization and subjected to TUNEL assay using a […] TUNEL system (Promega, WI, USA) for investigation of the apoptosis of cancer cells. The tumor tissues stained with H&E and TUNEL were observed using a BX51 optical microscope (Olympus, Tokyo, Japan) and a TCS SP8 confocal laser microscope.

[2] = system: HCT-15 tumor-bearing mice; test: Tumor-targeting ability and biodistribution of DOX, C-prodrug, EGF-prodrug; format: in vivo; conditions: intravenous, 24 hours
From the text: In addition, the tumor-targeting ability of DOX, the C-prodrug and the EGF-prodrug was compared.

[3] = system: HCT-15 tumor-bearing mice; test: In-vivo and ex-vivo fluorescence imaging of EGF-Cy5.5, C-probe, EGF-probe; conditions: cryosections, confocal
Description: The biodistribution of the EGF-probe intravenously administered to mice having HCT-15, HT29, Lovo or HCT-8 tumors was evaluated. First of all, 6-week-old Balb/c-nude mice (Nara-Biotec, Gyeonggi-do, Korea) were prepared and each cell was subcutaneously inoculated into the nude mice at the right flank at a concentration of 2×10^6 cells/mouse to generate tumors. […] At 24 hours after the administration of the EGF-probe, the mouse was imaged using an IVIS fluorescence imaging system. […] IVIS fluorescence imaging was conducted at 24 hours after the administration. Major organs and tumors were obtained and imaged with an IVIS imaging system. The fluorescence intensity of the organs and tumors was analyzed using the Living Image 2.50 software. […] The tumor tissue sections were counter-stained with DAPI and visualized with a confocal microscope.

Molecule	cytotoxicity versus concentration [1]	tumor size (HCT-8-bearing mice)	ex-vivo distribution in organs and tumor [2]	fluorescence of tumor tissue sections [3]
COc1cccc2c1C(=O)c1c(O)c3c(c(O)c1C2=O)C[C@@](O)(C(=O)CO)C[C@@H]3O[C@H]1C[C@H](N)[C@H](O)[C@H](C)O1.Cl [DOX, doxorubicin hydrochloride]	increased with the concentration	not controlled significantly	significant amounts were accumulated also in the lung, liver and kidney	–
(Ac)CGFLG-DOX [C-prodrug]	–	not controlled significantly	–	–
Cy5.5-GFLGGK(BHQ-3)GG-COOH [C-probe]	–	–	–	much weaker fluorescence signals
